Earlier results in patent publication US20080075681A1, “Method and composition for permanently shaping hair” (priority 2006, published 2008).

Details: compared to N-methylmercaptoacetamide and N-hydroxyethylmercaptoacetamide; EP 0969791 B1

For `O=C(CS)NCCCO` [N-(3′-hydroxypropyl)-2-mercapto-acetamide], the sensitization rates is given as “substantially lower”.
